≈ marks a conversion by molar mass, not a printed value.
Key:
[1] = Kinetic solubility analysis (CLND: total chemiluminescent nitrogen determination); conditions: 1.0% DMSO, 24-hour incubation at ambient temperature, maximum theoretical concentration 100 μM; for pH 2 solubility: 0.1N HCl; for pH 7 solubility: 1×PBS buffer (pH 7.4)
[2] = Solubility in simulated intestinal fluids (FaSSIF / FeSSIF); conditions: 25 °C, thermodynamic from solid
[3] = fasted state simulated intestinal fluid (FaSSIF), fassif
[4] = fed state simulated intestinal fluid (FeSSIF), fessif

Compound | pH 2 solubility [1] [μM] | pH 7 solubility [1] [μM] | solubility [2, 3] [µg/mL] | solubility [2, 4] [µg/mL] | solubility ([2]; fassif) [µg/mL]
CC(C)(C#Cc1ccc(-c2ccc(Cl)c3c(N(C(=O)[C@@H]4C[C@H]4C(=O)O)S(C)(=O)=O)nn(CC(F)(F)F)c23)c([C@H](Cc2cc(F)cc(F)c2)NC(=O)Cn2nc(C(F)(F)F)c3c2C(F)(F)[C@@H]2C[C@H]32)n1)S(C)(=O)=O [Compound 16, (1R,2R)-2-((4-chloro-7-(2-((S)-1-(2-((3bS,4aR)-5,5-difluoro-3-(trifluoromethyl)-3b,4,4a,5-tetrahydro-1H-cyclopropa[3,4]cyclopenta[1,2-c]pyrazol-1-yl)acetamido)-2-(3,5-difluorophenyl)ethyl)-6-(3-methyl-3-(methylsulfonyl)but-1-yn-1-yl)pyridin-3-yl)-1-(2,2,2-trifluoroethyl)-1H-indazol-3-yl)(methylsulfonyl)carbamoyl)cyclopropane-1-carboxylic acid] | 1 | 44 | 21 (≈ 19.4 µM) | 6 (≈ 5.55 µM) | –
CC(C)(C#Cc1ccc(-c2ccc(Cl)c3c(N(C(=O)C4(C(=O)O)CC4)S(C)(=O)=O)nn(CC(F)(F)F)c23)c([C@H](Cc2cc(F)cc(F)c2)NC(=O)Cn2nc(C(F)(F)F)c3c2C(F)(F)[C@@H]2C[C@H]32)n1)S(C)(=O)=O [Compound 18, 1-((4-chloro-7-(2-((S)-1-(2-((3bS,4aR)-5,5-difluoro-3-(trifluoromethyl)-3b,4,4a,5-tetrahydro-1H-cyclopropa[3,4]cyclopenta[1,2-c]pyrazol-1-yl)acetamido)-2-(3,5-difluorophenyl)ethyl)-6-(3-methyl-3-(methylsulfonyl)but-1-yn-1-yl)pyridin-3-yl)-1-(2,2,2-trifluoroethyl)-1H-indazol-3-yl)(methylsulfonyl)carbamoyl)cyclopropane-1-carboxylic acid] | 1 | 8 | 42 (≈ 38.9 µM) | 21 (≈ 19.4 µM) | –
CC(C)(C#Cc1ccc(-c2ccc(Cl)c3c(N(C(=O)c4ccccc4C(=O)OCOP(=O)(O)O)S(C)(=O)=O)nn(CC(F)(F)F)c23)c([C@H](Cc2cc(F)cc(F)c2)NC(=O)Cn2nc(C(F)(F)F)c3c2C(F)(F)[C@@H]2C[C@H]32)n1)S(C)(=O)=O [Compound 19, (phosphonooxy)methyl 2-((4-chloro-7-(2-((S)-1-(2-((3bS,4aR)-5,5-difluoro-3-(trifluoromethyl)-3b,4,4a,5-tetrahydro-1H-cyclopropa[3,4]cyclopenta[1,2-c]pyrazol-1-yl)acetamido)-2-(3,5-difluorophenyl)ethyl)-6-(3-methyl-3-(methylsulfonyl)but-1-yn-1-yl)pyridin-3-yl)-1-(2,2,2-trifluoroethyl)-1H-indazol-3-yl)(methylsulfonyl)carbamoyl)benzoate] | 2 | 75 | 816 (≈ 665 µM) | 487 (≈ 397 µM) | –
CC(C)(C#Cc1ccc(-c2ccc(Cl)c3c(N(C(=O)c4ccccc4CN(CCC(=O)O)C(=O)OCOP(=O)(O)O)S(C)(=O)=O)nn(CC(F)(F)F)c23)c([C@H](Cc2cc(F)cc(F)c2)NC(=O)Cn2nc(C(F)(F)F)c3c2C(F)(F)[C@@H]2C[C@H]32)n1)S(C)(=O)=O [Compound 21, 3-((2-((4-chloro-7-(2-((S)-1-(2-((3bS,4aR)-5,5-difluoro-3-(trifluoromethyl)-3b,4,4a,5-tetrahydro-1H-cyclopropa[3,4]cyclopenta[1,2-c]pyrazol-1-yl)acetamido)-2-(3,5-difluorophenyl)ethyl)-6-(3-methyl-3-(methylsulfonyl)but-1-yn-1-yl)pyridin-3-yl)-1-(2,2,2-trifluoroethyl)-1H-indazol-3-yl)(methylsulfonyl)carbamoyl)benzyl)(((phosphonooxy)methoxy)carbonyl)amino)propanoi c acid] | 1 | 100 | 1110 (≈ 835 µM) | 1420 (≈ 1070 µM) | –
CC(C)(C#Cc1ccc(-c2ccc(Cl)c3c(N(C(=O)c4ccccc4COP(=O)(O)O)S(C)(=O)=O)nn(CC(F)(F)F)c23)c([C@H](Cc2cc(F)cc(F)c2)NC(=O)Cn2nc(C(F)(F)F)c3c2C(F)(F)[C@@H]2C[C@H]32)n1)S(C)(=O)=O [Compound 22, 2-((4-chloro-7-(2-((S)-1-(2-((3bS,4aR)-5,5-difluoro-3-(trifluoromethyl)-3b,4,4a,5-tetrahydro-1H-cyclopropa[3,4]cyclopenta[1,2-c]pyrazol-1-yl)acetamido)-2-(3,5-difluorophenyl)ethyl)-6-(3-methyl-3-(methylsulfonyl)but-1-yn-1-yl)pyridin-3-yl)-1-(2,2,2-trifluoroethyl)-1H-indazol-3-yl)(methylsulfonyl)carbamoyl)benzyl dihydrogen phosphate] | 1 | 100 | 618 | 534 | –
CC(C)(C#Cc1ccc(-c2ccc(Cl)c3c(N(C(=O)N4CCC[C@H]4CN(CC(=O)O)C(=O)OCOP(=O)(O)O)S(C)(=O)=O)nn(CC(F)(F)F)c23)c([C@H](Cc2cc(F)cc(F)c2)NC(=O)Cn2nc(C(F)(F)F)c3c2C(F)(F)[C@@H]2C[C@H]32)n1)S(C)(=O)=O [Compound 33, N—(((S)-1-((4-chloro-7-(2-((S)-1-(2-((3bS,4aR)-5,5-difluoro-3-(trifluoromethyl)-3b,4,4a,5-tetrahydro-1H-cyclopropa[3,4]cyclopenta[1,2-c]pyrazol-1-yl)acetamido)-2-(3,5-difluorophenyl)ethyl)-6-(3-methyl-3-(methylsulfonyl)but-1-yn-1-yl)pyridin-3-yl)-1-(2,2,2-trifluoroethyl)-1H-indazol-3-yl)(methylsulfonyl)carbamoyl)pyrrolidin-2-yl)methyl)-N-(((phosphonooxy)methoxy)carbonyl)glycine] | 1 | 100 | – | – | 5020 (≈ 3840 µM)

More lines, main results first:

pH 2 solubility [1] [μM] | pH 7 solubility [1] [μM] | solubility [2, 3] [µg/mL] | solubility [2, 4] [µg/mL] | Compound | solubility ([2]; fassif) [µg/mL]
2 | 17 | 377 (≈ 305 µM) | 139 (≈ 113 µM) | CC(C)(C#Cc1ccc(-c2ccc(Cl)c3c(N(C(=O)N4CCOC[C@H]4C(=O)OCOP(=O)(O)O)S(C)(=O)=O)nn(CC(F)(F)F)c23)c([C@H](Cc2cc(F)cc(F)c2)NC(=O)Cn2nc(C(F)(F)F)c3c2C(F)(F)[C@@H]2C[C@H]32)n1)S(C)(=O)=O [Compound 23, (phosphonooxy)methyl (S)-4-((4-chloro-7-(2-((S)-1-(2-((3bS,4aR)-5,5-difluoro-3-(trifluoromethyl)-3b,4,4a,5-tetrahydro-1H-cyclopropa[3,4]cyclopenta[1,2-c]pyrazol-1-yl)acetamido)-2-(3,5-difluorophenyl)ethyl)-6-(3-methyl-3-(methylsulfonyl)but-1-yn-1-yl)pyridin-3-yl)-1-(2,2,2-trifluoroethyl)-1H-indazol-3-yl)(methylsulfonyl)carbamoyl)morpholine-3-carboxylate] | –
1 | 100 | 75 (≈ 68.5 µM) | 21 (≈ 19.2 µM) | CC(C)(C#Cc1ccc(-c2ccc(Cl)c3c(N(C(=O)N4CC(C(=O)O)C4)S(C)(=O)=O)nn(CC(F)(F)F)c23)c([C@H](Cc2cc(F)cc(F)c2)NC(=O)Cn2nc(C(F)(F)F)c3c2C(F)(F)[C@@H]2C[C@H]32)n1)S(C)(=O)=O [Compound 24, 1-((4-chloro-7-(2-((S)-1-(2-((3bS,4aR)-5,5-difluoro-3-(trifluoromethyl)-3b,4,4a,5-tetrahydro-1H-cyclopropa[3,4]cyclopenta[1,2-c]pyrazol-1-yl)acetamido)-2-(3,5-difluorophenyl)ethyl)-6-(3-methyl-3-(methylsulfonyl)but-1-yn-1-yl)pyridin-3-yl)-1-(2,2,2-trifluoroethyl)-1H-indazol-3-yl)(methylsulfonyl)carbamoyl)azetidine-3-carboxylic acid] | –
1 | 98 | 802 | 536 | CC(C)(C#Cc1ccc(-c2ccc(Cl)c3c(N(C(=O)N4CCC[C@H]4COP(=O)(O)O)S(C)(=O)=O)nn(CC(F)(F)F)c23)c([C@H](Cc2cc(F)cc(F)c2)NC(=O)Cn2nc(C(F)(F)F)c3c2C(F)(F)[C@@H]2C[C@H]32)n1)S(C)(=O)=O [Compound 29, ((S)-1-((4-chloro-7-(2-((S)-1-(2-((3bS,4aR)-5,5-difluoro-3-(trifluoromethyl)-3b,4,4a,5-tetrahydro-1H-cyclopropa[3,4]cyclopenta[1,2-c]pyrazol-1-yl)acetamido)-2-(3,5-difluorophenyl)ethyl)-6-(3-methyl-3-(methylsulfonyl)but-1-yn-1-yl)pyridin-3-yl)-1-(2,2,2-trifluoroethyl)-1H-indazol-3-yl)(methylsulfonyl)carbamoyl)pyrrolidin-2-yl)methyl dihydrogen phosphate] | –
1 | 100 | 478 (≈ 383 µM) | 306 (≈ 245 µM) | CC(C)(C#Cc1ccc(-c2ccc(Cl)c3c(N(C(=O)N4CCC[C@H]4CNC(=O)OCOP(=O)(O)O)S(C)(=O)=O)nn(CC(F)(F)F)c23)c([C@H](Cc2cc(F)cc(F)c2)NC(=O)Cn2nc(C(F)(F)F)c3c2C(F)(F)[C@@H]2C[C@H]32)n1)S(C)(=O)=O [Compound 32, (phosphonooxy)methyl (((S)-1-((4-chloro-7-(2-((S)-1-(2-((3bS,4aR)-5,5-difluoro-3-(trifluoromethyl)-3b,4,4a,5-tetrahydro-1H-cyclopropa[3,4]cyclopenta[1,2-c]pyrazol-1-yl)acetamido)-2-(3,5-difluorophenyl)ethyl)-6-(3-methyl-3-(methylsulfonyl)but-1-yn-1-yl)pyridin-3-yl)-1-(2,2,2-trifluoroethyl)-1H-indazol-3-yl)(methylsulfonyl)carbamoyl)pyrrolidin-2-yl)methyl)carbamate] | –
